Consider ten compounds from patent publication US20240059658A1 (Emory University, priority 2019, published 2024).

The subject of one series is EU-1. The series is described as follows: WST cytotoxicity assay, cancer cell EU-1. It counts as cell-based, human. The conditions noted are these: Homo sapiens, EU-1, EU-1; no other cell line named in the cell; read-out: Cancer cell (EU-1) cytotoxicity IC50. In outline:
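Pediatric ALL and NB lines grown in RPMI 1640 with 10% FBS at 37 °C, 5% CO2. Cells were exposed to a range of compound concentrations for 20 h, then WST (25 μg/well) was added for a further 4 h. OD read at 450 nm against a 620 nm reference.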

The next series can be described thus: in vivo. The settings on record: mouse.
For a further series, the system named is p53. The series is described as follows: p53 induction / expression (Western blot). It counts as cell-based. The conditions noted are these: words or +/− grades, key not given. The method, then:
(§1) Cells were lysed in a buffer composed of 50 mM Tris, pH 7.6, 150 mM NaCl, 1% Nonidet P-40, 10 mM sodium phosphate, 10 mM NaF, 1 mM sodium orthovanadate, 2 mM phenylmethylsulfonyl fluoride (PMSF), […], 10 μg/mL leupeptin and 10 μg/mL pepstatin. After centrifugation, the clarified cell lysate was separated from the pellet of cell debris, and then incubated with 15 μL Protein G/Protein A-agarose and 1 μg of antibodies, overnight at 4° C. For the Western blot, the resulting cell lysates or immunoprecipitates were resolved by SDS-PAGE. They were then transferred to a nitrocellulose filter and probed with the specific antibodies as listed in the supplemental Materials section. Finally, proteins were visualized with a chemiluminescent detection system.

A further series addresses T1, MDM2 (Homo sapiens, UniProt Q00987).
T1 construct: ubiquitination of endogenous MDM2 in EU-1 cells; endogenous in cells; host or cells: EU-1 (ALL) cells
The series is described as follows: MDM2 reduction / expression (Western blot). It counts as cell-based. The settings on record: words or +/− grades, key not given. The method, then: as §1

The subject of the next series is 855 line. The series is described as follows: WST cytotoxicity assay, 855 line. Type of series: cell-based. The settings on record: read-out: Cancer cell cytotoxicity IC50. The procedure: (§2) The cytotoxic effect of MX 69 and MX69 analogs on cancer cells was determined using the water-soluble tetrazolium salt (WST) assay. Briefly, cells cultured in 96-well microtiter plates were treated with different concentrations of AQ-101 for a 20-h period. WST (25 μg/well) was then added and incubation continued for an additional 4 h, after which optical density (OD) was read with a microplate reader (test wavelength of 450 nm; reference wavelength of 620 nm).

A further series relates to NB-1643. As to the kind of experiment: WST cytotoxicity assay, NB-1643. It counts as cell-based. The conditions noted are these: Homo sapiens; NB-1643 line; read-out: Cancer cell cytotoxicity IC50. The procedure:
This study used two ALL cell lines (EU-1 and EU-3) and three NB cell lines (NB-1643, SHEP1 and LA1-55N). All 5 cancer cell lines were established from pediatric ALL or NB patients and were well-characterized for their expression of MDM2 and p53-status, as reported previously. All cell lines were grown in standard culture medium (RPMI 1640 containing 10% FBS, 2 mmol/L L-glutamine, 50 U penicillin and 50 μg/mL streptomycin) at 37° C. in a humidified atmosphere containing 5% CO2.
as §2

Series [1] addresses T2, MDM2 RING protein (Homo sapiens, UniProt Q00987). The series is described as follows: Compound-protein binding (ITC) to MDM2 RING protein. The settings on record: MDM2 RING domain. The procedure:
Isothermal titration calorimetry (ITC) assay was performed using the auto-iTC200 instrument (MicroCal, GE). MDM2 protein was loaded into a 96 DeepWell PP plate, and then compound was titrated stepwise into the protein sample cell using a syringe, for a total of 16 injections (except for the first injection, which was 0.4 μl). The equilibrium time between two adjacent injections was 210 s. The binding stoichiometry (n), binding constant (Kd), and thermodynamic parameters (ΔH and ΔS) were determined by fitting the titration curve to a one-site binding mode, using the Origin software provided by the manufacturer.

The subject of the next series is 697 cell line. The series is described as follows: WST cytotoxicity assay, 697 cell line. The settings on record: read-out: Cancer cell cytotoxicity IC50. Type of series: cell-based. The procedure: as §2
For the next series, the system named is XIAP. The series is described as follows: XIAP inhibition / expression (Western blot). The conditions noted are these: MDM2 reduction. Type of series: cell-based. The procedure:
as §1

Series [2] concerns human normal bone marrow mononuclear (NBMM) cells. As to the kind of experiment: Clonogenic assay for CFU-GM and BFU-E (normal hematopoiesis). Type of series: cell-based. The settings on record: 1 μM, 14 days. The procedure:
For colony formation of normal human hematopoiesis assay, a bottom layer of low-melting-point, 0.5% agarose (in RPMI 1640 medium plus 10% FBS) was poured into gridded 35 mm dishes and allowed to gel. Cells were cultured in a top layer of 0.35% agarose/medium at 37° C. in a humidified atmosphere containing 5% CO2. After 2-3 weeks, cultures were fixed with formalin and colonies scored.

Another series has as its system normal cells/tissues. The conditions noted are these: Gu et al. Cancer Cell 2016; cited from earlier work.
In series [3] the target is T2, MDM2 RING protein. The conditions noted are these: Gu et al. Cancer Cell 2016; cited from earlier work.
Another series deals with caspases-3, -9 and PARP. The series is described as follows: Western blot, cleavage of caspases-3, -9 and PARP in EU-1 cells. Type of series: cell-based. The procedure:
as §1

T1 sequence (Q00987 whole entry): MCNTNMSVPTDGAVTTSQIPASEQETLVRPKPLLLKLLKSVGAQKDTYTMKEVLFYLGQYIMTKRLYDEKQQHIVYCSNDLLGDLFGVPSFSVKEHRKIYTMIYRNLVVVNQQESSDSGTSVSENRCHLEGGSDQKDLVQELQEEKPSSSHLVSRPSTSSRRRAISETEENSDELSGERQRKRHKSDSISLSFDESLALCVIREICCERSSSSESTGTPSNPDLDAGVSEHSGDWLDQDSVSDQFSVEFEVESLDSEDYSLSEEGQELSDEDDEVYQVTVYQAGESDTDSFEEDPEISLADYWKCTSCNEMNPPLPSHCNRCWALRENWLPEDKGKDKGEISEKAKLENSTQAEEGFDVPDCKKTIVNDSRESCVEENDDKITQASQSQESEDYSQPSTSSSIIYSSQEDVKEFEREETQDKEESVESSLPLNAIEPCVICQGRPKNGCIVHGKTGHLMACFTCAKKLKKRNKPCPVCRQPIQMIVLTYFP
T2 sequence (Q00987 438-479 limits assumed): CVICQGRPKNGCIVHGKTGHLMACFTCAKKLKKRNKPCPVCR

For `COC(=O)c1ccc(C2Nc3ccc(S(=O)(=O)Nc4ccc(C)c(C)c4)cc3[C@H]3OCC[C@@H]23)cc1` (stereo partly drawn) [Compound 69L1], the IC50 with EU-1 lay within 1.5 to 6 µM. The compound also displayed an MTD in the series “in vivo” of 300 mg/kg.
In turn, `Cc1ccc(NS(=O)(=O)c2ccc3c(c2)C2OCC[C@H]2[C@H](C2CCCCC2)N3)cc1C` (stereo partly drawn) [Compound 69L53, 4-cyclohexyl-N-(3,4-dimethylphenyl)-2,3,3a,4,5,9b-hexahydrofuran[3,2-c]quinolone-8-sulfonamine] displayed an MTD in “in vivo” of 300 mg/kg. In the series with p53, the p53 induction result is reported as “induction”. In addition, the MDM2 reduction result on MDM2 is on record as “inhibition”. The IC50 came to 0.8 µM with 855 line and 1.73 µM in the series on NB-1643. In addition, at MDM2 RING protein [1], the “MDM2 binding affinity as compared with MX69” value is “Increased MDM2 Binding Affinity”.
Turning to `O=S(=O)(Nc1ccc(Cl)c(Cl)c1)c1ccc2c(c1)C1OCC[C@H]1[C@H](C1CCCCC1)N2` (stereo partly drawn) [Compound 69L60, 4-cyclohexyl-N-(3,4-dichlorophenyl)-2,3,3a,4,5,9b-hexahydrofuran[3,2-c]quinolone-8-sulfonamine], the results for the IC50 in the series on 697 cell line, in the series with 855 line and with NB-1643 were 2.73 µM, 1.81 µM and 5.65 µM, respectively. Moreover, the MDM2 reduction entry on MDM2 is recorded as “Increase”.
As to `Cc1ccc(NS(=O)(=O)c2ccc3c(c2)C2OCC[C@H]2C2(CCCCC2)N3)cc1C` (stereo partly drawn) [Compound 69L62], the half-inhibitory concentration (IC50) in the series on 697 cell line was found to be 0.49 µM; in the series with 855 line, 0.98 µM; in the series on NB-1643 it was 1.3 µM. On MDM2, the MDM2 reduction entry is listed as “No MDM2”.
As for `Cc1ccc(NS(=O)(=O)c2ccc3c(c2)C2OCC[C@H]2C(c2cccc4ccccc24)N3)cc1C` (stereo partly drawn) [Compound 69L63], the IC50 in the series on 697 cell line came to 3.94 µM; in the series on 855 line, 6.07 µM. Moreover, the p53 induction result with p53 was “induction”.
Take `Cc1ccc(NS(=O)(=O)c2ccc3c(c2)C2OCC[C@H]2[C@H](C2CCN(C(=O)OC(C)(C)C)CC2)N3)cc1C` (stereo partly drawn) [Compound 69L64]: the IC50 turned out to be 0.28 µM in the series with 697 cell line and 1.35 µM with 855 line. Besides, the p53 induction result with p53 is “induction”.
In the case of `Cc1ccc(NS(=O)(=O)c2ccc3c(c2)[C@H]2NCC[C@H]2[C@@H](c2ccc(C(=O)C(C)C)cc2)N3)cc1C` [Compound 69L81], the XIAP inhibition result in the series on XIAP is on record as “inhibition”. The IC50 with EU-1 was determined as 3.2 µM. Further, in the series with p53, the p53 induction result is on record as “inhibition”. At MDM2, the MDM2 reduction entry was “inhibition”.
As to `COc1cccc2c1C(=O)c1c(O)c3c(c(O)c1C2=O)C[C@@](O)(C(=O)CO)C[C@@H]3O[C@H]1C[C@H](N)[C@H](O)[C@H](C)O1` [Dox, doxorubicin], in series [2], the “BFU-E colony numbers and size” value is “significantly reduced”; the “CFU-GM colony numbers and size” value is “significantly reduced”.
Take `Cc1ccc(NS(=O)(=O)c2ccc3c(c2)[C@H]2C=CC[C@H]2[C@H](c2ccc(C(=O)O)cc2)N3)cc1C` [MX69, reference compound]: in the series with EU-1, the half-inhibitory concentration (IC50) was 7 µM. In addition, in the series with normal cells/tissues, the “Toxicity on normal cells/tissues” value is “minimal toxicity”. The MTD in the series “in vivo” is 200 mg/kg. On MDM2 RING protein [3], the “Binding to the RING domain of MDM2” value is on record as “specifically binds to the RING domain of MDM2”.
As to `Cc1ccc(NS(=O)(=O)c2ccc3c(c2)C2OCCC2C(c2ccc(C(=O)C(C)C)cc2)N3)cc1C` (stereo not drawn) [McX69-102], the “Time after treatment at which cleavage of caspases-3, -9 and PARP can be detected” value in the series with caspases-3, -9 and PARP is reported as 8 h.
